According to US9801373B2, “Compounds for alleviating phosphate starvation symptoms in plants” (Commissariat a l'Energie Atomique et aux Energies …, priority 2012, dated 2017):

What was measured:
Assay type in all cases: in vivo, Arabidopsis thaliana
[1] = system: lpr1, lpr2 and lpi mutants; experiment: Primary root growth of mutants with reduced root sensitivity to Pi starvation; conditions: 7-days-old plants, PTN1 40 μM, FIG. 8
Excerpt: (§1) A “chemical genetics” approach has been carried out to isolate compounds that inhibit the phosphate (Pi) response in Arabidopsis thaliana. Compounds were screened for their ability to inhibit the expression of a phosphate starvation marker, namely the high affinity Pi transporter PHT1,4 gene. For the screening, the A. thaliana pht1;4-1 line (ecotype Wassilewskija) was chosen (Misson et al., 2004). It contains a T-DNA construct inserted into Pht1;4 gene creating a transcriptional fusion with a GUS reporter gene. For phenotypic analyses, A. thaliana Columbia and various lines derived from this ecotype were used. They are either transgenic lines expressing reporter gene as cycB1::GUS (Colón Carmona et al., 1999), MGD3::LUC, PHT1;4::LUC, At1g73010::LUC or various mutants affecting root response to low Pi such as: pdr2 (Ticconi et al., 2004), lpr1, lpr2 (Svistoonoff et al., 2007), lpi1, lpi2 and lpi3 (Sanchez-Calderon et al., 2006).
In the Pi deficient medium, NaCl (0.5 mM) was used to replace the equivalent amount of sodium provided by NaH2PO4. For controls of the effects of the compounds, 1% of DMSO (Dimethyl sulfoxid, SIGMA, 472301), solvent for the tested compounds, was added. […] Root architecture and aerial part area were quantified using program ImageJ.

lpr1 mutant = experiment: Shoot growth of lpr1 mutant; conditions: −Pi, 28-days-old plants
Method: (§2) In the Pi deficient medium, NaCl (0.5 mM) was used to replace the equivalent amount of sodium provided by NaH2PO4. For controls of the effects of the compounds, 1% of DMSO (Dimethyl sulfoxid, SIGMA, 472301), solvent for the tested compounds, was added. After 2 days at 4° C., the plates were placed in a vertical position and plants were grown in a culture chamber under a 16 h light/8 h dark regime (24/21° C., 150 μE m^−2s^−1). For 4 weeks culture, large plates (24×24 cm) were placed in a horizontal position. Root architecture and aerial part area were quantified using program ImageJ.

wild-type (WT) seedlings = experiment: Primary root growth of wild-type seedlings; conditions: for activity of PTN1 analogues (inhibitor activity of PHT1;4 expression and effect on the growth): WT seedlings, FIG. 6; for concentration at which active on primary root growth: −Pi
Method: as §2

PHT1;4 expression = experiment: Chemical genetics screen, GUS staining of pht1;4-1 reporter line
Excerpt: as §1
For the screening, the LATCA collection of 3600 biologically active compounds (Zhao et al., 2007) was used at a final concentration of 25 μM in 1% DMSO. Four to five Arabidopsis seeds of pht1;4-1 (Misson et al., 2004) reporter line were sown in 96-well plates containing 100 μL liquid MS/10 medium with 500 μM of Pi at pH 5.7. After 2 days at 4° C., plants were grown for five days in a culture chamber under a 16 h light/8 h dark regime (24/21° C., 150 μE m^−2s^−1). Medium was then replaced by MS/10 with only 5 μM Pi and the tested compounds were added to the 96-well plates. […] Five days later, plantlets were analysed by GUS staining to assay the activity of the reporter gene inserted in pht1;4 gene. […] Then, plates were analysed using a MZ16 stereomicroscope (Leica microsystems, Germany).
The GUS activity was detected as previously described by Jefferson et al. (1987), using a GUS staining solution containing 50 mM sodium phosphate buffer pH 7.0; 0.01% Triton X-100, 1 mM K3Fe(CN)6, 1 mM K4Fe(CN)6, 1 mg/ml 5-bromo-4-chloro-3-indolyl B-D-glucuronide (X-Gluc). […]

PHT1 genes (PHT1;4) = experiment: qPCR of PHT1 transcript level on root mRNA; conditions: qPCR on root mRNA, FIG. 2 (B)
Method: Plant RNA was extracted with the RNeasy kit (QIAGEN, France). For transcriptome data, RNA were analysed by the CATMA technology (Complete Arabidopsis Transcriptome Microarray). For qPCR, poly(dT) cDNA were prepared from 500 ng total RNA with Superscript III reverse transcriptase (Invitrogen, France) and analysed on a LightCycler 480 apparatus (Roche Diagnostics, France) with the SYBR Green I Master kit (Roche Diagnostics, France) according to the manufacturer's instructions. Targets were quantified with specific primer pairs designed with Primer3 website (http://frodo.wi.mit.edu/primer3/) (see Table II below). Biological triplicates were performed for all experiments. Expression levels were normalized using At2g16600, At3g04120, At1g35160 and At1g32050 genes.

Structure (SMILES)	primary root growth of lpr1 or lpi mutants [1]	growth of the lpr1 rosette (lpr1 mutant)	primary root growth at various external Pi concentrations (15-250 uM) (wild-type (WT) seedlings; 10 uM, 5 days on Pi rich medium then 24 hours on tested conditions, FIG. 7 (D))	activity of PTN1 analogues (inhibitor activity of PHT1;4 expression and effect on the growth) (wild-type (WT) seedlings)	concentration at which active on primary root growth (wild-type (WT) seedlings; FIG. 7 (A)) [µM]	PHT1;4 expression (analogue test) (PHT1;4 expression; 100 μM)	primary root growth on −Pi (wild-type (WT) seedlings; WT, 7-day-old plantlets, FIG. 7 (A))	toxicity as cause of reduced reporter gene expression (PHT1;4 expression; 25 μM, 5 days on −Pi)	effect on PHT1;4 transcript level (PHT1 genes (PHT1;4))
Clc1ccc(SSc2ccc(Cl)cc2)cc1 [PTN4]	no additive effect	+25%	improved root growth until 50/75 μM of Pi	Active	10				
Sc1ccc(Cl)cc1 [PTN3, 4-chlorothiophenol]				Active	100	repressed PHT1;4 expression	sustained also the primary root growth		
CS(=O)(=O)C1=C2C=CCCC2=C(C(=O)Sc2ccc(Cl)cc2)C1 [PTN2]								not explained by toxicity	dose dependant manner
